Target: T1, IDH1 mutant (R132H) (Homo sapiens, UniProt O75874, R132H)
T1 construct: purchased BPS Bioscience 71099-2
Assay: Mutant IDH1-R132H Fluorescence Assay (Resazurin based)
Type: biochemical
Details: 10 nM IDH1 R132H, 4 mM α-ketoglutarate, NADPH, 1.5 h at room temperature
Method: IC50 values of compounds against IDH1 mutant (R132H) was determined by Resazurin based Fluorescence assay. Assays were performed in Buffer (25 mM Tris HCl, 150 mM NaCl, 10 mM MgCl2, 0.03% BSA, 2 mM 1-mercaptoethanol) where total reaction volume was 12.5 μL in low-volume 384-well plates (Cat #4511, Corning). Serially diluted compounds (3-fold) were incubated with cocktail of α-ketoglutarate (4 mM; Cat #75892-25G, Sigma), NADPH ([…]; Cat # N1630-100MG, Sigma) and buffer for 5 min, following IDH1 R132H mutant (10 nM; Cat #71099-2, BPS Bioscience) was added and incubated in dark at room temperature for 1.5 h. After 1.5 h, 6.25 μL detection solution containing Resazurin ([…]; (Cat #62758-13-8, Sigma) and Diaphorase (40 ug/ml; Cat # D2197-300UN, Sigma) in buffer was added and incubated for 15 min. Readings were taken in a Synergy Neo Plate reader (BioTek, Winooski) at single excitation of 540 nm and emission at 590 nm respectively.
The % (percent) activity of test samples was calculated as (Sample−Min)×100/(Max−Min). [Max: DMSO control, complete reaction with enzyme with DMSO and Min: No enzyme with DMSO]. Percent inhibition (100−% activity) was fitted to the “four-parameter logistic model” in XLfit for determination of IC50 values.

T1 sequence (O75874 whole entry R132H): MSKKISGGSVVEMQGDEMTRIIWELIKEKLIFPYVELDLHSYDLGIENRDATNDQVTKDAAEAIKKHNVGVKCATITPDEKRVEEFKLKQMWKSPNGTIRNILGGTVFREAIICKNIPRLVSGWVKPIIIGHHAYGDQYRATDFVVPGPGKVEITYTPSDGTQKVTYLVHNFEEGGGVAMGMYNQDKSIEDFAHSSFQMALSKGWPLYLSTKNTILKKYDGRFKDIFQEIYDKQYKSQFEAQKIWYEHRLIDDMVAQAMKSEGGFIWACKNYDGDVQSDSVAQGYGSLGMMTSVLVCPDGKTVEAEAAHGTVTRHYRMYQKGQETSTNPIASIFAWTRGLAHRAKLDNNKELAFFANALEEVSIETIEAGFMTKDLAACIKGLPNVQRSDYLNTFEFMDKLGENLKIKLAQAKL

| IC50 | Compound |
| --- | --- |
| 2.44 µM | CC[C@H]1COC(=O)N1c1nc(N[C@@H](C)c2ccc(Oc3ccccc3)cc2)nc(C2CC2)n1 [Compound 1.71, (S)-3-(4-cyclopropyl-6-((S)-1-(4-phenoxyphenyl)ethylamino)-1,3,5-triazin-2-yl)-4-ethyloxazolidin-2-one] |
| > 30 µM | CC[C@H]1COC(=O)N1c1nc(C)nc(N[C@H](C)c2ccc(OCc3ccccc3)cc2)n1 [Compound 1.72, (S)-3-(4-((R)-1-(4-(benzyloxy)phenyl)ethylamino)-6-methyl-1,3,5-triazin-2-yl)-4-ethyloxazolidin-2-one] |
| 15.4 µM | CC[C@H]1COC(=O)N1c1nc(C)nc(N[C@@H](C)c2ccc(OCc3ccccc3)cc2)n1 [Compound 1.73, (S)-3-(4-((S)-1-(4-(benzyloxy)phenyl)ethylamino)-6-methyl-1,3,5-triazin-2-yl)-4-ethyloxazolidin-2-one] |
| > 30 µM | CC[C@H]1COC(=O)N1c1nc(C)nc(N[C@@H](C)c2ccc(Oc3cccnc3)cc2)n1 [Compound 1.74, (S)-4-ethyl-3-(4-methyl-6-((S)-1-(4-(pyridin-3-yloxy)phenyl)ethylamino)-1,3,5-triazin-2-yl)oxazolidin-2-one] |
| > 23.3 µM | CC[C@H]1COC(=O)N1c1nc(C)nc(N[C@H](C)c2ccc(Oc3ccccc3)cn2)n1 [Compound 1.76, (S)-4-ethyl-3-(4-methyl-6-((R)-1-(5-phenoxypyridin-2-yl)ethylamino)-1,3,5-triazin-2-yl)oxazolidin-2-one] |
| 5.95 µM | CC[C@H]1COC(=O)N1c1nc(C)nc(N[C@@H](C)c2ccc(Oc3ccccc3)nc2)n1 [Compound 1.77, (S)-4-ethyl-3-(4-methyl-6-((S)-1-(6-phenoxypyridin-3-yl)ethylamino)-1,3,5-triazin-2-yl)oxazolidin-2-one] |
| 2.72 µM | CC[C@H]1COC(=O)N1c1nc(C)nc(N[C@H](C)c2ccc(Oc3ccc(F)cc3Br)cc2)n1 [Compound 1.79, (S)-3-(4-((R)-1-(4-(2-bromo-4-fluorophenoxy)phenyl)ethylamino)-6-methyl-1,3,5-triazin-2-yl)-4-ethyloxazolidin-2-one] |
| 10.2 µM | CC[C@H]1COC(=O)N1c1nc(C)nc(N[C@H](C)c2ccc(Oc3cccnc3C(F)(F)F)cc2)n1 [Compound 1.80, (S)-4-ethyl-3-(4-methyl-6-((R)-1-(4-(2-(trifluoromethyl)pyridin-3-yloxy)phenyl)ethylamino)-1,3,5-triazin-2-yl)oxazolidin-2-one] |
| 8.82 µM | CC[C@H]1COC(=O)N1c1nc(C)nc(N[C@@H](C)c2ccc(Oc3ccc(Cl)cc3)nc2OC)n1 [Compound 1.87, (S)-3-(4-((S)-1-(6-(4-chlorophenoxy)-2-methoxypyridin-3-yl)ethylamino)-6-methyl-1,3,5-triazin-2-yl)-4-ethyloxazolidin-2-one] |
| > 30 µM | CC[C@H]1COC(=O)N1c1nc(C)nc(N[C@H](C)c2ccc(Nc3ccccc3)cc2)n1 [Compound 1.88, (S)-4-ethyl-3-(4-methyl-6-((R)-1-(4-(phenylamino)phenyl)ethylamino)-1,3,5-triazin-2-yl)oxazolidin-2-one] |
| 1.42 µM | CC[C@H]1COC(=O)N1c1nc(C)nc(N[C@@H](C)c2ccc(Nc3ccccc3)cc2)n1 [Compound 1.89, (S)-4-ethyl-3-(4-methyl-6-((S)-1-(4-(phenylamino)phenyl)ethylamino)-1,3,5-triazin-2-yl)oxazolidin-2-one] |
| 1.54 µM | CC[C@H]1COC(=O)N1c1nc(C)nc(N[C@@H](C)c2ccc3c(ccn3-c3ccccc3)c2)n1 [Compound 1.90, (S)-4-ethyl-3-(4-methyl-6-((S)-1-(1-phenyl-1H-indol-5-yl)ethylamino)-1,3,5-triazin-2-yl)oxazolidin-2-one] |
| > 30 µM | CC[C@H]1COC(=O)N1c1nc(C)nc(N[C@H](C)c2ccc(Sc3ccc(F)cc3)cc2)n1 [Compound 1.91, (S)-4-ethyl-3-(4-((R)-1-(4-(4-fluorophenylthio)phenyl)ethylamino)-6-methyl-1,3,5-triazin-2-yl)oxazolidin-2-one] |
| > 30 µM | CC[C@H]1COC(=O)N1c1nc(C)nc(N[C@H](C)c2ccc(Oc3ccc4ccccc4c3)cc2)n1 [Compound 1.93, (S)-4-ethyl-3-(4-methyl-6-((R)-1-(4-(naphthalen-2-yloxy)phenyl)ethylamino)-1,3,5-triazin-2-yl)oxazolidin-2-one] |
| 2.64 µM | CC[C@H]1COC(=O)N1c1nc(C)nc(N[C@@H](C)c2ccc(Cc3ccccc3)cc2)n1 [Compound 1.95, (S)-3-(4-((S)-1-(4-benzylphenyl)ethylamino)-6-methyl-1,3,5-triazin-2-yl)-4-ethyloxazolidin-2-one] |
| 3.83 µM | CC[C@H]1COC(=O)N1c1nc(C)nc(N[C@@H](C)c2ccc(Oc3ccc(Cl)cc3)c(C)n2)n1 [Compound 1.96, (S)-3-(4-((S)-1-(5-(4-chlorophenoxy)-6-methylpyridin-2-yl)ethylamino)-6-methyl-1,3,5-triazin-2-yl)-4-ethyloxazolidin-2-one] |
| > 30 µM | CC[C@H]1COC(=O)N1c1nc(C)nc(N[C@H](C)c2ccc(Oc3ccc(Cl)cc3)c(C)n2)n1 [Compound 1.97, (S)-3-(4-((R)-1-(5-(4-chlorophenoxy)-6-methylpyridin-2-yl)ethylamino)-6-methyl-1,3,5-triazin-2-yl)-4-ethyloxazolidin-2-one] |
| 21.4 µM | CC[C@H]1COC(=O)N1c1nc(C)nc(N[C@@H](C)c2ccc(CN3CCN(C(C)=O)CC3)cc2)n1 [Compound 1.98, (S)-3-(4-((S)-1-(4-((4-acetylpiperazin-1-yl)methyl)phenyl)ethylamino)-6-methyl-1,3,5-triazin-2-yl)-4-ethyloxazolidin-2-one] |
| > 30 µM | CC[C@H]1COC(=O)N1c1nc(C)nc(N[C@H](C)c2ccc(CN3CCN(C(C)=O)CC3)cc2)n1 [Compound 1.99, (S)-3-(4-((R)-1-(4-((4-acetylpiperazin-1-yl)methyl)phenyl)ethylamino)-6-methyl-1,3,5-triazin-2-yl)-4-ethyloxazolidin-2-one] |
| 2.24 µM | CC[C@H]1COC(=O)N1c1nc(C)nc(N[C@@H](C)c2ccc3c(-c4ccccc4)c[nH]c3c2)n1 [Compound 1.100, (S)-4-ethyl-3-(4-methyl-6-((S)-1-(3-phenyl-1H-indol-6-yl)ethylamino)-1,3,5-triazin-2-yl)oxazolidin-2-one] |
| 13.6 µM | CC[C@H]1COC(=O)N1c1nc(C)nc(N[C@@H](C)c2ccc3c(-c4ccccc4)cn(C)c3c2)n1 [Compound 1.101, (S)-4-ethyl-3-(4-methyl-6-((S)-1-(1-methyl-3-phenyl-1H-indol-6-yl)ethylamino)-1,3,5-triazin-2-yl)oxazolidin-2-one] |
| > 30 µM | CC[C@H]1COC(=O)N1c1nc(C)nc(N[C@H](C)c2ccc(C(=O)Nc3ccccc3)cc2)n1 [Compound 1.102, 4-((R)-1-(4-((S)-4-ethyl-2-oxooxazolidin-3-yl)-6-methyl-1,3,5-triazin-2-ylamino)ethyl)-N-phenylbenzamide] |
| > 30 µM | CC[C@H]1COC(=O)N1c1nc(C)nc(N[C@@H](C)c2ccc(C(=O)Nc3ccccc3)cc2)n1 [Compound 1.103, 4-((S)-1-(4-((S)-4-ethyl-2-oxooxazolidin-3-yl)-6-methyl-1,3,5-triazin-2-ylamino)ethyl)-N-phenylbenzamide] |
